Test results published in ChEMBL document CHEMBL1146953, “Carbonic anhydrase inhibitors: cloning and sulfonamide inhibition studies of a carboxyterminal truncated alpha-carbonic anhydrase from Helicobacter pylori” (Bioorg Med Chem Lett, 2006).
pKi: −log10 of the molar value.

Each compound was assayed against carbonic anhydrase (Helicobacter pylori, UniProt O25798).
carbonic anhydrase, sequence (O25798 1-202): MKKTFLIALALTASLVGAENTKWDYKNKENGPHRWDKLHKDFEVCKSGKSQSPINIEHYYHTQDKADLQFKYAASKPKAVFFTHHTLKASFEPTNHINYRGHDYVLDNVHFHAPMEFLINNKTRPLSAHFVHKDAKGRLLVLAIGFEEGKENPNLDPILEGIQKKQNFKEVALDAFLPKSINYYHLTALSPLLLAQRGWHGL
Description: (§1) Inhibition of Helicobacter pylori recombinant CA

Q: With NNc1ccccc1S(N)(=O)=O as the compound, how does the pKi read?
A: The pKi was 6.25.

Q: Nc1ccc(S(=O)(=O)NCc2ccc(S(N)(=O)=O)cc2)cc1 was tested. Which pKi did it give?
A: Its pKi is 6.91.

Q: With Nc1cc(Cl)c(S(N)(=O)=O)cc1S(N)(=O)=O as the compound, how does the pKi read?
A: The pKi was 7.39.

Q: Nc1ccc(S(N)(=O)=O)cc1I was tested. Which pKi did it give?
A: The pKi was 6.30.

Q: With Nc1ccc(S(=O)(=O)Nc2nnc(S(N)(=O)=O)s2)cc1 as the compound, how does the pKi read?
A: Its pKi is 6.67.

Q: NS(=O)(=O)c1nnc(-c2ccccc2Cl)s1 was tested. Which pKi did it give?
A: Its pKi is 7.08.

Q: With Nc1nccc(Nc2ccc(S(N)(=O)=O)cc2)n1 as the compound, how does the pKi read?
A: Its pKi is 7.14.

Q: How did the pKi turn out when NS(=O)(=O)c1nc2ccc(O)cc2s1 was run?
A: Its pKi is 6.76.

Q: With Nc1ccc(S(N)(=O)=O)cc1Br as the compound, how does the pKi read?
A: The pKi was 6.33.

Q: How did the pKi turn out when Cn1nc(S(N)(=O)=O)sc1=N was run?
A: Its pKi is 6.31.

Q: With NS(=O)(=O)c1ccc(CCO)cc1 as the compound, how does the pKi read?
A: The pKi was 5.94.

Q: Nc1ccc(S(N)(=O)=O)cc1F was tested. Which pKi did it give?
A: The pKi was 5.88.

Q: How did the pKi turn out when NS(=O)(=O)c1ccc(CO)cc1 was run?
A: The pKi was 6.06.

Q: How did the pKi turn out when NCCc1ccc(S(N)(=O)=O)cc1 was run?
A: Its pKi is 5.99.

Q: How did the pKi turn out when Nc1ccc(S(N)(=O)=O)cc1Cl was run?
A: Its pKi is 6.40.

Q: With Nc1ccc(S(=O)(=O)NCCc2ccc(S(N)(=O)=O)cc2)cc1 as the compound, how does the pKi read?
A: Its pKi is 7.02.

Q: NS(=O)(=O)c1ccc(S(=O)(=O)Nc2cccc3c(Cl)c[nH]c23)cc1 was tested. Which pKi did it give?
A: The pKi was 6.36.

Q: How did the pKi turn out when Nc1cc(C(F)(F)F)c(S(N)(=O)=O)cc1S(N)(=O)=O [2,4-DISULFAMYLTRIFLUOROMETHYLANILINE] was run?
A: The pKi was 6.40.

Q: How did the pKi turn out when NS(=O)(=O)c1nnc(NS(=O)(=O)c2ccccc2)s1 [BENZOLAMIDE] was run?
A: The pKi was 6.54.

Q: With CCN[C@H]1CN(CCCOC)S(=O)(=O)c2sc(S(N)(=O)=O)cc21 [BRINZOLAMIDE] as the compound, how does the pKi read?
A: The pKi was 6.61.

Q: How did the pKi turn out when NS(=O)(=O)c1ccc(C(=O)O)cc1 [CARZENIDE] was run?
A: Its pKi is 5.97.

Q: How did the pKi turn out when CCOc1ccc2nc(S(N)(=O)=O)sc2c1 [ETHOXZOLAMIDE] was run?
A: The pKi was 6.81.

Q: With NCc1ccc(S(N)(=O)=O)cc1 [MAFENIDE] as the compound, how does the pKi read?
A: The pKi was 6.08.

Q: With Cc1ccc(S(N)(=O)=O)cc1 [P-TOLUENESULFONAMIDE] as the compound, how does the pKi read?
A: Its pKi is 6.33.

Q: Nc1ccc(S(N)(=O)=O)cc1 [SULFANILAMIDE] was tested. Which pKi did it give?
A: Its pKi is 6.37.

The compounds below were run against T1, Carbonic anhydrase (Helicobacter pylori (strain ATCC 700392 / 26695) (Campylobacterpylori), UniProt O24855).
T1 sequence (O24855 whole entry): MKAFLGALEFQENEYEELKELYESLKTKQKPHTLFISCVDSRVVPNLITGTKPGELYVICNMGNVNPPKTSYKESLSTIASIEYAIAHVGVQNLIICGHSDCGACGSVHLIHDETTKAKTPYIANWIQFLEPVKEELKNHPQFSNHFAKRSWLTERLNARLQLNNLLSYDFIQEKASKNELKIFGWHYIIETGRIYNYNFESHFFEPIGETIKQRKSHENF
Description: as §1

Q: With CC1(C)O[C@@H]2[C@@H](CO[C@@]3(COS(N)(=O)=O)OC(C)(C)O[C@@H]23)O1 [TOPIRAMATE] as the compound, how does the pKi read?
A: Its pKi is 6.69.
